Among the data in ChEMBL document CHEMBL5726333, “C2-carbocyclic iminothiazine dioxides as BACE inhibitors, compositions, and their use” (2017) are Ki values, retold here.

For experiment [1], the target named is Beta-secretase 1 (Homo sapiens, UniProt P56817). The experiment is described as follows: HTRF FRET Assay: The compounds of the invention were determined to be potent inhibitors of BACE-1 using the following assay.The following reagents were used in this assay. Na+-Acetate pH 5.0; 1% Brij-35; Glycerol; Dimethyl Sulfoxide (DMSO); Recombinant human soluble BACE-1 catalytic domain (>95% pure); APP Swedish mutant peptide substrate (QSY7-APPswe-Eu): QSY7-[…]-Europium-amide.A homogeneous time-resolved FRET assay can be used to determine IC50 values for inhibitors of the soluble human BACE-1 catalytic domain. This assay monitors the increase of 620 nm fluorescence that resulted from BACE-1 cleavage of an APPswedish APPswe mutant peptide FRET substrate (QSY7-[…]-Europium-amide). This substrate contains an N-terminal QSY7 moiety that serves as a quencher of the C-terminal Europium fluorophore (620 nm Em). In the absence of enzyme activity, 620 nm fluorescence is low in the assay and increased linearly over 3 hours in the presence of uninhibited BACE-1 enzyme. Inhibition of BACE-1 cleavage of the QSY7-APPswe-Eu substrate by inhibitors is manifested as a suppression of 620 nm fluorescence. In general terms: Time-resolved FRET reads energy transfer from a long-lived donor to a nearby acceptor.

For experiment [2], the target named is T1, Beta-secretase 2 (Homo sapiens, UniProt Q9Y5Z0).
T1 sequence (Q9Y5Z0 whole entry): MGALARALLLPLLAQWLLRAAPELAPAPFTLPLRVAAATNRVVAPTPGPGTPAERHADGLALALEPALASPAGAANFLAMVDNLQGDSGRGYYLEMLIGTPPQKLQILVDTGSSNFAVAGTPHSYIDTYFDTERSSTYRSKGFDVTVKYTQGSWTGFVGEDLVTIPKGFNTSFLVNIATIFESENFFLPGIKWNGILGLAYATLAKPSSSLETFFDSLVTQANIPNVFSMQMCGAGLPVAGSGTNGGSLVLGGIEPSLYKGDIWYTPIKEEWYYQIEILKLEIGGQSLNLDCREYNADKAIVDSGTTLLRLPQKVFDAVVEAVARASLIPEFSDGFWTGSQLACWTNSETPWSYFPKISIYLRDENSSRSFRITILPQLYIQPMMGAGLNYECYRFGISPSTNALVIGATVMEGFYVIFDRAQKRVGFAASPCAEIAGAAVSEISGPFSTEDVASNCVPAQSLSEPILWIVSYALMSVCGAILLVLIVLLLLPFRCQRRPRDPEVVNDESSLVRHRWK
The experiment is described as follows: BACE-2 Assay: The compounds of the invention were determined to be potent inhibitors of BACE-2 using the following assay. Inhibitor IC50s at purified human autoBACE-2 are determined in a time-resolved endpoint proteolysis assay that measures hydrolysis of the QSY7-[…]-Eu-amide FRET peptide substrate (BACE-HTRF assay). BACE-mediated hydrolysis of this peptide results in an increase in relative fluorescence (RFU) at 620 nm after excitation with 320 nm light Inhibitor compounds, prepared at 3× the desired final concentration in 1×BACE assay buffer (20 mM sodium acetate pH 5.0, 10% glycerol, 0.1% Brij-35) supplemented with 7.5% DMSO are pre-incubated with an equal volume of autoBACE-2 enzyme diluted in 1×BACE assay buffer (final enzyme concentration 1 nM) in black 384-well NUNC plates for 30 minutes at 30° C. […] DMSO is present at 5% final concentration in the assay. Following laser excitation of sample wells at 320 nm, the fluorescence signal at 620 nm is collected for 400 ms following a 50 μs delay on a RUBYstar HTRF plate reader (BMG Labtechnologies). Raw RFU data is normalized to maximum (1.0 nM BACE/DMSO) and minimum (no enzyme/DMSO) RFU values.

The target of experiment [3] is Cathepsin D (Homo sapiens, UniProt P07339). Nature of the experiment: Cathepsin-D Assay: The following reagents were used in this assay: Na+-Acetate pH 5.0; 1% Brij-35; Dimethyl Sulfoxide (DMSO); Purified human Cathepsin-D (>95% pure); Aspartyl protease peptide substrate AC-Cys(Eu_Chelate)-Gly-Lys-Pro_ile_leu_phe-Phe-Arg-Leu-Lys(QSY7)-ASP-ASP-NH2.As noted above, certain compounds of the invention exhibit good selectivity of BACE-1 over Cathepsin-D. A homogeneous ….
Chain of Cathepsin D (P07339 65-162 limits assumed): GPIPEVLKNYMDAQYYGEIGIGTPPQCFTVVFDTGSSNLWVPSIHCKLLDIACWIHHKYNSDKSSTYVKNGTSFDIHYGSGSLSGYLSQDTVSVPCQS
Chain of Cathepsin D (P07339 169-412 limits assumed): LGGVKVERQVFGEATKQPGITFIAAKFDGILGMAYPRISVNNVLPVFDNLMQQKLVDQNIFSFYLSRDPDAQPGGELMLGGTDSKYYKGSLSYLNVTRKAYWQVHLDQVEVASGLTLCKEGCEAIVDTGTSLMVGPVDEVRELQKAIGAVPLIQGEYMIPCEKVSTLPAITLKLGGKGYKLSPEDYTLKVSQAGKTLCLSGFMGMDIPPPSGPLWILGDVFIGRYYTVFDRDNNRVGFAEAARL
Description: This substrate contains an C-terminal QSY7 moiety that serves as a quencher of the N-terminal Europium fluorophore (620 nm Em). In the absence of enzyme activity, 620 nm fluorescence is low in the assay and increased linearly over 1 hour in the presence of uninhibited Cathepsin-D enzyme. Inhibition of Cathespin D cleavage of the Eu-Aspartyl Protease-QSY7 substrate by inhibitors is manifested as a suppression of 620 nm fluorescence.

Chain of Beta-secretase 1 (P56817 whole entry, the tested form may be a part): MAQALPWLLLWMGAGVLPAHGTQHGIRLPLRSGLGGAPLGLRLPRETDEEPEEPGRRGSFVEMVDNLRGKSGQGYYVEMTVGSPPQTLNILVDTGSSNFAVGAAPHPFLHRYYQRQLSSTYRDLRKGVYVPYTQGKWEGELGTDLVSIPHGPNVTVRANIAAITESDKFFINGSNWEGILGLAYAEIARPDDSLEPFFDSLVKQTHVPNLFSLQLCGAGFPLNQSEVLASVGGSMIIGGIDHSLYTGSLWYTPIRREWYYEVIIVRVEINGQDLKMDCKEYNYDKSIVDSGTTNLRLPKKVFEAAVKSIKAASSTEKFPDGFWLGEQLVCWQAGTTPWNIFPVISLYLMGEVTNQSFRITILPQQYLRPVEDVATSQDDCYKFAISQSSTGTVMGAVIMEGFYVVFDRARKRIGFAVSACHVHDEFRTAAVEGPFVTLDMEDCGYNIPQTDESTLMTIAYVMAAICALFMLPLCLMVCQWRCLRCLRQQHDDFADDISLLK

Consider `C[C@@]1(c2cc(Nc3ccnc4cc(F)cnc34)ncc2F)CS(=O)(=O)[C@@](C)(C2CC2)C(N)=N1`, for which the Ki in experiment [1] is 8.5 nM; in experiment [2] it was 1.7 nM; in experiment [3], 4900 nM.

In the case of `CC#CCOc1cnc2c(Nc3cnc(F)c([C@]4(C)CS(=O)(=O)[C@@](C)(C5CC5)C(N)=N4)c3)nccc2c1`, the Ki in experiment [1] was 2.8 nM; in experiment [2], 120 nM; in experiment [3] it was above 9400 nM.

Consider `COc1cnc2c(Nc3cc([C@]4(C)CS(=O)(=O)[C@@](C)(C5CC5)C(N)=N4)c(F)cn3)ccnc2n1`, for which the Ki in experiment [1] is 5.2 nM; in experiment [2] it was 2.2 nM; in experiment [3] it was above 9400 nM.

As to `COc1cnc2c(Nc3ccc(F)c([C@]4(C)CS(=O)(=O)[C@@](C)(C5CC5)C(N)=N4)c3)ccnc2n1`, the Ki was 40 nM in experiment [1], 53 nM in experiment [2] and above 9400 nM in experiment [3].

On to `C[C@@]1(c2cc(Nc3nccc4cc(F)cnc34)ncc2F)CS(=O)(=O)[C@@](C)(C2CC2)C(N)=N1`, for which the Ki was 12 nM in experiment [1], 1 nM in experiment [2] and above 9400 nM in experiment [3].

`C[C@@]1(c2cc(Nc3ccnc4cccnc34)ncc2F)CS(=O)(=O)[C@@](C)(C2CC2)C(N)=N1`: the Ki in experiment [1] is 59 nM; in experiment [2], 3.6 nM; in experiment [3] it was above 9400 nM.

With `CC#CCOc1cnc2c(Nc3cnc(F)c([C@]4(C)CS(=O)(=O)[C@@](C)(C5CC5)C(N)=N4)c3)nccc2n1`, the Ki in experiment [1] is 1.8 nM; in experiment [2], 24 nM; in experiment [3], above 9400 nM.

On to `COc1cnc2c(Nc3ccc(F)c([C@]4(C)CS(=O)(=O)[C@@](C)(C5CC5)C(N)=N4)c3)ccnc2c1`, for which the values for the Ki in experiment [1], in experiment [2] and in experiment [3] were 27 nM, 20 nM and above 9400 nM, respectively.

`C[C@@]1(c2cc(Nc3ncnc4cc(C#N)cnc34)ncc2F)CS(=O)(=O)[C@@](C)(C2CC2)C(N)=N1`: the figures for the Ki in experiment [1], in experiment [2] and in experiment [3] were 13 nM, 19 nM and above 9400 nM, respectively.

For `C[C@@]1(c2cc(Nc3nccc4cc(C#N)cnc34)ccc2F)CS(=O)(=O)[C@@](CF)(C2CC2)C(N)=N1`, the Ki amounted to 1.3 nM in experiment [1], 0.6 nM in experiment [2] and 563 nM in experiment [3].

As to `CC#CCOc1cnc2c(Nc3cc([C@]4(C)CS(=O)(=O)[C@@](C)(C5CC5)C(N)=N4)c(F)cn3)nccc2n1`, the figures for the Ki in experiment [1], in experiment [2] and in experiment [3] were 1.5 nM, 1.2 nM and above 9400 nM, respectively.
